Assays:
[1] = target: T1, PKC isoenzyme α (Homo sapiens, UniProt P17252); test: Protein kinase C inhibition assay, PKC isoenzyme α; assay type: biochemical; conditions: read-out: IC50 PKC α
T1 construct: made in house; host or cells: baculovirus-insect cell expression system
Method: (§1) A protein kinase C (PKC) assay is designed to duplicate the in vivo conditions required for protein kinase C function. Therefore, pH, salt and cofactor concentrations are similar to physiologic levels. Either lysine rich histone H1 (H1) or Myelin basic protein (Mbp) are used in the assay as the phosphorylation acceptor-protein because they are readily available and serve as good substrates for protein kinase C. Enzyme was prepared from baculovirus-insect cell expression systems.
(§2) In the screening assay, phosphatidylserine (PS) and DAG were co-sonicated to form unilamellar and multilamellar vesicles. The concentration of lipids in the assay were suboptimal to maximize the detection potential of the assay for inhibitors or activators. Potential effector compounds were added to the assay in dimethylsulfoxide at four concentrations to give final inhibitor concentrations of 1, 10, 50, and 150 μM, respectively.
(§3) The assay was started with the addition of enzyme and stopped after 10 min by the addition of 25% trichloroacetic acid (TCA) and 1.0 mg/ml bovine serum albumin (BSA). The radioactive histone product was retained and washed on glass fiber filters that allow the unreacted P-ATP to pass through. The amount of phosphorylation was determined by measuring radioactivity with a scintillation counter. Controls were included in every assay to measure background activity in the absence of enzyme, activity in the absence of lipids, and the maximum enzyme activity with saturating levels of the activator lipids.
(§4) Results of the protein kinase C assay are shown in Table 4 in columns labeled α, βII, γ, δ, ε, and .zeta. which represent various PKC isoenzymes. Results are show as IC50, which is the concentration of test compound needed to inhibit 50% of the protein kinase C activity in controls.

[2] = target: T2, PKC isoenzyme βII (Homo sapiens, UniProt P05771); test: Protein kinase C inhibition assay, PKC isoenzyme βII; assay type: biochemical; conditions: read-out: IC50 PKC βII
T2 construct: made in house; host or cells: baculovirus-insect cell expression system
Method: as §1, §2, §3, §4

[3] = target: T3, PKC isoenzyme γ (Homo sapiens, UniProt P05129); test: Protein kinase C inhibition assay, PKC isoenzyme γ; assay type: biochemical; conditions: read-out: IC50 PKC γ
T3 construct: made in house; host or cells: baculovirus-insect cell expression system
Method: as §1, §2, §3, §4

[4] = target: T4, PKC isoenzyme δ (Homo sapiens, UniProt Q05655); test: Protein kinase C inhibition assay, PKC isoenzyme δ; assay type: biochemical; conditions: read-out: IC50 PKC δ
T4 construct: made in house; host or cells: baculovirus-insect cell expression system
Method: as §1, §2, §3, §4

[5] = target: T5, PKC isoenzyme ε (Homo sapiens, UniProt Q02156); test: Protein kinase C inhibition assay, PKC isoenzyme ε; assay type: biochemical; conditions: read-out: IC50 PKC ε
T5 construct: made in house; host or cells: baculovirus-insect cell expression system
T5 sequence (Q02156 1-737): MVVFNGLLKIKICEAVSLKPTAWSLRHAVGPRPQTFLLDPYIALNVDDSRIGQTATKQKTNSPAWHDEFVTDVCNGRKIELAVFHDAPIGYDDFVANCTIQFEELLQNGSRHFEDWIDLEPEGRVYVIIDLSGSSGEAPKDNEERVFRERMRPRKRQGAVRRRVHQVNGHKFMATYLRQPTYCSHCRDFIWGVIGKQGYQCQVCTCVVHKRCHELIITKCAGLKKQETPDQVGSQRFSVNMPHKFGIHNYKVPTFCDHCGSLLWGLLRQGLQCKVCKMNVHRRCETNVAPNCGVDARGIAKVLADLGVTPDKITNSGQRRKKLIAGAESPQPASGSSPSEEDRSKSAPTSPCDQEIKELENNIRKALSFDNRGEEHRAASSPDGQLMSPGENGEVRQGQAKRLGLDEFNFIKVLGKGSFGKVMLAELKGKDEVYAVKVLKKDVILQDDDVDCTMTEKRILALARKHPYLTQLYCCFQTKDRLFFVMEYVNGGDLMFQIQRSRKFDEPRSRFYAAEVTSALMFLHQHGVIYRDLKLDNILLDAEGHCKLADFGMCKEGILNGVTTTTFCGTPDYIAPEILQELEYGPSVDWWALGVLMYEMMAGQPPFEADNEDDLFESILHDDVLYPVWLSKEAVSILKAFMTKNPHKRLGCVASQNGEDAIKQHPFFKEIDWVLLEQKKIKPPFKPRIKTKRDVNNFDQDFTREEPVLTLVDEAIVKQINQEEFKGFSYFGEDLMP
Method: as §1, §2, §3, §4

[6] = target: T6, PKC isoenzyme ζ (Homo sapiens, UniProt Q05513); test: Protein kinase C inhibition assay, PKC isoenzyme ζ; assay type: biochemical; conditions: read-out: IC50 PKC .zeta.
T6 construct: made in house; host or cells: baculovirus-insect cell expression system
T6 sequence (Q05513 1-592): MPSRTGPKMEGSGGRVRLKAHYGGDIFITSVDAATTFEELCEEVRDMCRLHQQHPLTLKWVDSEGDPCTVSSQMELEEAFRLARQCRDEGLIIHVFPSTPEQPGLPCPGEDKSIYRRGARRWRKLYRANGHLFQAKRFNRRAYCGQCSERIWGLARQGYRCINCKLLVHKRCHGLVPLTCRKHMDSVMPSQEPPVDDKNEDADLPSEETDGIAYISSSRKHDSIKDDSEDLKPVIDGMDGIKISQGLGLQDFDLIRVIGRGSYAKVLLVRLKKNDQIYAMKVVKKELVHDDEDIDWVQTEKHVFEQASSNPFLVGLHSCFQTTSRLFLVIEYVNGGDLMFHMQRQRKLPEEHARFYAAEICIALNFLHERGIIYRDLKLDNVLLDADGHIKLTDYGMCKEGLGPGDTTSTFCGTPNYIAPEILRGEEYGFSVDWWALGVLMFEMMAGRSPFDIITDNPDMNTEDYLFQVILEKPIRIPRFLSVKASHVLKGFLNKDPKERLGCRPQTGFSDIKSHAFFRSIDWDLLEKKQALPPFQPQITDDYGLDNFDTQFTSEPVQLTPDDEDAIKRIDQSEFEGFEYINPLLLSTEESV
Method: as §1, §2, §3, §4

[7] = target: cAMP dependent protein kinase (PKA); test: cAMP Dependent Protein Kinase (PKA) Assay; assay type: biochemical
Method: Compounds found to be inhibitors of protein kinase C were tested for inhibitory activity against cAMP dependent protein kinase (PKA). This enzyme, like protein kinase C, plays an important role in cell-cell communication and is activated by a second messenger, cAMP. Secondary screening against PKA is useful for ascertaining the selectivity of the compounds of the invention.
The catalytic subunit of PKA (Sigma Chemical Company, St. Louis, Mo.) was mixed with buffer before addition of the inhibitor in dimethylsulfoxide (DMSO). Potential inhibitor compounds were added to the assay in dimethylsulfoxide at two concentrations to give final inhibitor concentrations of 30 and 150 μM, respectively. The assay was started by the addition of ^32 P-ATP and the reaction was allowed to proceed for 10 min before stopping with 25% trichloroacetic acid (TCA) and 1.0 mg/ml bovine serum albumin (BSA). Phosphorylated protein was then isolated by filtration and the radioactivity was counted by a beta scintillation counter.

[8] = system: normal human epidermal keratinocyte (NHEK) cells; test: Human Keratinocyte Inhibition (3H TdR Assay); assay type: cell-based; conditions: 24 h incubation, 3H-thymidine
Method: Proliferating normal human epidermal keratinocyte (NHEK) cells were obtained in the second passage and grown in keratinocyte growth medium, KGM (Clonetics, Inc.) at 37° C., 5% CO2. The cells were trypsinized (0.25%), centrifuged, counted with a hemocytometer, and seeded at a concentration of 5000 cells in 100 μl well in a 96-well microtiter plate.
After the cells were allowed to attach to the microtiter plate overnight, test agents were titrated to determine the dose response. This was done by adding each test agent dilution in quadruplicate to the plate at 2× final concentration in 100 μl to bring the total volume of each well to 200 μl. Culture media with no test agent added was used as a normal control. Duplicate sets of plates were established.
After twenty-four hours of incubation with test compounds 37° C. and 5% CO2, […] of 0.01 mCi/ml tritiated thymidine (New England Nuclear) was added to each well and allowed to incubate for another 4 hours under the same conditions.
Supernatant was aspirated and discarded and […] of 0.05% trypsin (Gibco) was added to each cell. Cells were checked microscopically to determine detachment from surfaces and then harvested onto glass filters. The filters were then placed in vials to which scintillant was added and counted for one minute each in a scintillation counter.
Determine mean cpm of wells containing test agent (n=4) or KGM control (n=16). Calculate % of control by the formula: [formula]
The IC50, or connection necessary to inhibit 50% of control, of each test agent was determined by plotting % control vs log concentration for each dilution and then linear forecasting the 50% control value onto the X axis on a Quatro Pro computer program. Only regression values with a correlation coefficient greater than 0.9 were considered acceptable.

T2 sequence (P05771 1-673 isoform P05771-2): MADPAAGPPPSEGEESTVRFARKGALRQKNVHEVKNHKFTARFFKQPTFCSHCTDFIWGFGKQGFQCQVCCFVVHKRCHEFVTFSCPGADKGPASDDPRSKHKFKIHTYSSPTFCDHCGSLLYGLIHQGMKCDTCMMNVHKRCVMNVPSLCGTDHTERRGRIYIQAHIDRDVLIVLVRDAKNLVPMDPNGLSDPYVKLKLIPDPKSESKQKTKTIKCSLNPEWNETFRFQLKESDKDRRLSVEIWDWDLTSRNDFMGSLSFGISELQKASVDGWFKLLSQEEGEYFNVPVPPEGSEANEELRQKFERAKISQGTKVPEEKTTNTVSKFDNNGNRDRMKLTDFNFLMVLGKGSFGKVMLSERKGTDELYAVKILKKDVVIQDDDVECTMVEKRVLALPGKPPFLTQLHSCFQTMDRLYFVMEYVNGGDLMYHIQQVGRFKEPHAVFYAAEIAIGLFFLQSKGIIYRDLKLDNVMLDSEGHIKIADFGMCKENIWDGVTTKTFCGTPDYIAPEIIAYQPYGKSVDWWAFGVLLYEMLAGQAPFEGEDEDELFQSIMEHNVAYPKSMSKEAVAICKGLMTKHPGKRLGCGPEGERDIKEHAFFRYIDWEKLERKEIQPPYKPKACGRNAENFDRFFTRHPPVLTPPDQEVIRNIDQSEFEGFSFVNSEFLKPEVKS
T4 sequence (Q05655 whole entry): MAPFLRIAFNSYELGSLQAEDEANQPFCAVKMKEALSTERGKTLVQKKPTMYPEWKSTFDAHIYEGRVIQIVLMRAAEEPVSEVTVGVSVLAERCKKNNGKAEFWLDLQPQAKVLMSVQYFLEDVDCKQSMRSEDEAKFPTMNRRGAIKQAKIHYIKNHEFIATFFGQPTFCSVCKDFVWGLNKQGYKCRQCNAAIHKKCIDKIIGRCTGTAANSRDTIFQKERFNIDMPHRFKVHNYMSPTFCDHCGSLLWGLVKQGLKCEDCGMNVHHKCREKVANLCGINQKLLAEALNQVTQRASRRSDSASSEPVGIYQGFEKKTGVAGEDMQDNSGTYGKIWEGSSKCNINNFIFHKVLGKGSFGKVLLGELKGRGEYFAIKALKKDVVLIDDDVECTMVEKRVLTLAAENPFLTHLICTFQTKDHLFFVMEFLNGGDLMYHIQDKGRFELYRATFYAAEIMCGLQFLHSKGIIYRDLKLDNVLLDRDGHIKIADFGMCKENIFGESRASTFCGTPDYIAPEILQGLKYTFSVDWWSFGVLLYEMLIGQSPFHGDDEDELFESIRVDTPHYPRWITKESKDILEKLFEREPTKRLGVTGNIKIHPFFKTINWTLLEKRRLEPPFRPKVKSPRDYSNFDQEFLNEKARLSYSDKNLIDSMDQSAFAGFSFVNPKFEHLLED

| IC50 [1] | IC50 [2] | IC50 [3] | IC50 [4] | IC50 [5] | IC50 [6] | IC50 ([7]; catalytic subunit of PKA) | effect on PKA activity ([7]; result in words) | SMILES | IC50 [8] |
| --- | --- | --- | --- | --- | --- | --- | --- | --- | --- |
| 125 µM | > 150 µM | 76 µM | > 150 µM | > 150 µM | > 150 µM |  |  | N=C(N)NS(=O)(=O)c1ccc(N=C2C=C(Nc3ccc(S(=O)(=O)NC(=N)N)cc3)C(=O)c3ccccc32)cc1 [Compound 3ab] |  |
| 90 µM | > 150 µM | 88 µM | > 150 µM | > 150 µM | > 150 µM |  |  | Cc1cc(C)nc(NS(=O)(=O)c2ccc(N=C3C=C(Nc4ccc(S(=O)(=O)Nc5cc(C)cc(C)n5)cc4)C(=O)c4ccccc43)cc2)c1 [Compound 3aj] |  |
| 35 µM | 50 µM | 29 µM | 39 µM | > 150 µM |  | > 150 µM | did not effect on PKA activity | Cc1noc(NS(=O)(=O)c2ccc(N=C3C=C(Nc4ccc(S(=O)(=O)Nc5onc(C)c5C)cc4)C(=O)c4ccccc43)cc2)c1C [Compound 6b] | 16.7 µM |
